Read-outs that look alike come from different tables or passages of the source.
Experiments:
Format in all cases: in vivo
Pyrenophora teres = experiment: Pyrenophora teres-test (barley)/preventive; conditions: 192 h, read-out: Efficacy in %
Description: (§1) The expected fungicidal action for a given combination of two or three active compounds can be calculated as follows, according to S. R. Colby (“Calculating Synergistic and Antagonistic Responses of Herbicide Combinations”, Weeds 1961 15, 20-22):
(§2) If • X is the efficacy when employing active compound A at an application rate of m g/ha, • Y is the efficacy when employing active compound B at an application rate of n g/ha and • E is the efficacy when employing active compounds A and B at application rates of m and n g/ha,
(§3) Here, the efficacy is determined in %. 0% means an efficacy which corresponds to that of the control, whereas an efficacy of 100% means that no infection is observed.
(§4) If the actual fungicidal action exceeds the calculated value, the action of the combination is superadditive, i.e. a synergistic effect is present. In this case, the actually observed efficacy must exceed the value calculated using the above formula for the expected efficacy (E).
Pyrenophora teres-Test (Barley)/Preventive
(§5) Solvent: 49 parts by weight of n,n-dimethylacetamid
(§6) Emulsifier: 1 part by weight of alkylaryl polyglycol ether
(§7) To produce a suitable preparation of active compound, 1 part by weight of active compound or active compound combination is mixed with the stated amounts of solvent and emulsifier, and the concentrate is diluted with water to the desired concentration.
(§8) To test for preventive activity, young plants are sprayed with the preparation of active compound or active compound combination at the stated rate of application.
After the spray coating has been dried on, the plants are sprayed with a spore suspension of Pyrenophora teres. The plants remain for 48 hours in an incubation cabinet at approximately 20° C. and a relative atmospheric humidity of approximately 100%.
The plants are placed in the greenhouse at a temperature of approximately 20° C. and a relative atmospheric humidity of approximately 80%.
The test is evaluated 8 days after the inoculation. 0% means an efficacy which corresponds to that of the control, while an efficacy of 100% means that no disease is observed.

[1] = system: Blumeria graminis f.sp. tritici; experiment: Blumeria test (wheat)/preventive; conditions: preventive spray, evaluated 7 days after inoculation
Description: as §1, §2, §3, §4
Blumeria Test (Wheat)/Preventive
as §5
(§9) Emulsifier: 1 part by weight of alkylaryl polyglycol ether […]
(§10) The test is evaluated 7 days after the inoculation. […]

Venturia inaequalis = experiment: Venturia test (apples)/protective; conditions: protective spray, evaluated 10 days after inoculation
Description: as §1, §2, §3, §4
Venturia Test (Apples)/Protective
(§11) Solvent: 24,5 parts by weight of acetone • 24,5 parts by weight of dimethylacetamide
as §6
(§12) To produce a suitable preparation of active compound, 1 part by weight of active compound is mixed with the stated amounts of solvent and emulsifier, and the concentrate is diluted with water to the desired concentration.
(§13) To test for protective activity, young plants are sprayed with the preparation of active compound at the stated rate of application. After the spray coating has dried on, the plants are inoculated with an aqueous conidia suspension of the causal agent of apple scab (Venturia inaequalis) and then remain for 1 day in an incubation cabinet at approximately 20° C. and a relative atmospheric humidity of 100%.
(§14) The plants are then placed in a greenhouse at approximately 21° C. and a relative atmospheric humidity of approximately 90%.
(§15) The test is evaluated 10 days after the inoculation. 0% means an efficacy which corresponds to that of the control, while an efficacy of 100% means that no disease is observed.

Septoria tritici = experiment: Septoria tritici-test (wheat)/preventive; conditions: preventive spray, evaluated 21 days after inoculation
Description: as §1, §2, §3, §4
Septoria tritici-Test (Wheat)/Preventive
as §5, §6, §7, §8
After the spray coating has been dried on, the plants are sprayed with a spore suspension of Septoria tritici. The plants remain for 48 hours in an incubation cabinet at approximately 20° C. and a relative atmospheric humidity of approximately 100% and afterwards for 60 hours at approximately 15° C. in a translucent incubation cabinet at a relative atmospheric humidity of approximately 100%.
The plants are placed in the greenhouse at a temperature of approximately 15° C. and a relative atmospheric humidity of approximately 80%.
The test is evaluated 21 days after the inoculation. 0% means an efficacy which corresponds to that of the control, while an efficacy of 100% means that no disease is observed.

Uromyces appendiculatus = experiment: Uromyces test (beans)/protective; conditions: protective spray, evaluated 10 days after inoculation
Description: as §1, §2, §3, §4
Uromyces Test (Beans)/Protective
as §11, §6, §12
as §13, with “spore” for “conidia”, “bean rust (Uromyces appendiculatus)” for “apple scab (Venturia inaequalis)”
as §14, §15

Sphaerotheca fuliginea = experiment: Sphaerotheca test (cucumbers)/protective; conditions: protective spray, evaluated 7 days after inoculation
Description: as §1, §2, §3, §4
Sphaerotheca Test (Cucumbers)/Protective
as §11, §9, §10

[2] = barley, preventive spray, 62.5 ppm, evaluated 8 days after inoculation

## Cc1cc(O)no1 [Ex B2 Hymexazol, Hymexazol]
Pyrenophora teres; barley, preventive spray, 1000 ppm, evaluated 8 days after inoculation
  pest or weed control at 1000 ppm: 0%

## Cc1nn(C)c(F)c1C(=O)Nc1ccccc1C(C)CC(C)C (stereo not drawn) [N-[2-(1,3-Dimethylbutyl)phenyl]-5-fluor-1,3-dimethyl-1H-pyrazole-4-carboxamide]
Pyrenophora teres; [2]
  pest or weed control at 62.5 ppm: 89%

## COCC(=O)N(c1c(C)cccc1C)[C@H](C)C(=O)OC [Ex B4 Metalaxyl M, Metalaxyl M]
[1]; 250 ppm
  Efficacy in %: 0%
Venturia inaequalis; 200 ppm
  Efficacy in %: 29%

## N#Cc1ccccc1NC(=O)c1snc(Cl)c1Cl [Ex I-2]
Pyrenophora teres
  pest or weed control at 250 ppm: 0%
  pest or weed control at 1000 ppm: 11%
Septoria tritici; 1000 ppm
  Efficacy in %: 0%
[1]; 1000 ppm
  Efficacy in %: 22%
Venturia inaequalis; 50 ppm
  Efficacy in %: 0%
Venturia inaequalis; 100 ppm
  Efficacy in %: 19%
Venturia inaequalis; 200 ppm
  Efficacy in %: 37%
Uromyces appendiculatus; 50 ppm
  Efficacy in %: 8%
Uromyces appendiculatus; 100 ppm
  Efficacy in %: 0%
Uromyces appendiculatus; 200 ppm
  Efficacy in %: 15%

## N#Cc1c[nH]cc1-c1cccc2c1OC(F)(F)O2 [Ex B4 Fludioxonil, Fludioxonil]
Pyrenophora teres
  pest or weed control at 125 ppm: 44%
Venturia inaequalis; 50 ppm
  Efficacy in %: 26%
Venturia inaequalis; 100 ppm
  Efficacy in %: 30%
Uromyces appendiculatus; 200 ppm
  Efficacy in %: 70%

## C[Si](C)(C)CC(O)(Cn1cncn1)c1ccc(F)cc1 (stereo not drawn) [Ex B2 Simeconazole, Simeconazole]
Septoria tritici; 1000 ppm
  Efficacy in %: 67%
Uromyces appendiculatus; 5 ppm
  Efficacy in %: 84%

## CO/N=C(/C1=NOCCO1)c1ccccc1Oc1ncnc(Oc2ccccc2Cl)c1F [Ex B1 Fluoxastrobin, Fluoxastrobin]
Pyrenophora teres; [2]
  pest or weed control at 62.5 ppm: 67%

## CC(C)C1CCC(Cc2ccc(Cl)cc2)C1(O)Cn1cncn1 (stereo not drawn) [Ex B2 Ipconazole, Ipconazole]
Pyrenophora teres; barley, preventive spray, 250 ppm, evaluated 8 days after inoculation
  pest or weed control at 250 ppm: 33%
Sphaerotheca fuliginea; 5 ppm
  Efficacy in %: 50%
Sphaerotheca fuliginea; 10 ppm
  Efficacy in %: 77%

## Cn1cc(C(=O)Nc2ccc(F)cc2-c2ccc(Cl)c(Cl)c2)c(C(F)F)n1 [Ex B3 Bixafen, Bixafen]
Pyrenophora teres; [2]
  pest or weed control at 62.5 ppm: 78%
Venturia inaequalis; 1 ppm
  Efficacy in %: 73%

## CO/N=C(/C(=O)OC)c1ccccc1CO/N=C(\C)c1cccc(C(F)(F)F)c1 [Ex B1 Trifloxystrobin, Trifloxystrobin]
Septoria tritici; 62.5 ppm
  Efficacy in %: 94%
Uromyces appendiculatus; 1 ppm
  Efficacy in %: 70%

## COCC(=O)N(c1c(C)cccc1C)C(C)C(=O)OC (stereo not drawn) [Ex B4 Metalaxyl, Metalaxyl]
Septoria tritici; 1000 ppm
  Efficacy in %: 33%

## CCCN(CCOc1c(Cl)cc(Cl)cc1Cl)C(=O)n1ccnc1 [Ex B4 Prochloraz, Prochloraz]
Pyrenophora teres
  pest or weed control at 62.5 ppm: 89%

From patent US8951934B2, “Active compound combinations” (Bayer CropScience AG, priority 2008, dated 2015)
